Read-outs that look alike come from different tables or passages of the source.
How the values were obtained:
[1] = Brain-to-plasma drug concentration ratio in mice; assay type: in vivo; conditions: mouse, brain and plasma, intravenous, read-out: B/P Ratio
Description: For measurement of the brain-to-plasma drug concentration ratio, mice were dosed intravenously with 1 mg/kg compounds. Mice were euthanized at 5 and 60 min post-dosing, and blood and brains were collected. The compound concentrations in plasma and brains were measured, following the protocol described above.

[2] = Intravenous pharmacokinetics in mouse; assay type: in vivo
Description: Determination of intravenous (i.v.) and per oral (p.o.) pharmacokinetics (PK) were carried out by using male BALB/c mice. […] To avoid any granular material, the solution was filtered, using a 0.45 μm syringe filter. The filtered solutions were dosed intravenously to mice via the lateral tail vein, at 5 mg/kg, with a dosing volume of 2 mL/kg. For all the p.o. PK studies, compounds were resuspended in 0.5% v/v methyl cellulose in 0.5 % v/v tween 80 solution. For 20 mg/kg dosing, 200 µL of compounds was administered orally to mice. […] Blood samples were collected into heparin microtainers and centrifuged, and then plasma was separated and frozen until analysis. Plasma samples (20 μL) were extracted with acetonitrile:methanol (3:1) containing internal standard. […] The supernatant was transferred to a 96-well analysis plate and analyzed, using optimized LC/MS/MS conditions. For every experiment, 3 mice were used per compound, per dose. The plasma concentration-time profile was obtained by plotting the mean value from the three animals at each time point. Various PK parameters, such as Cmax (maximum concentration), area under curve (AUC) and oral bioavailability (F) for compounds, were calculated by non-compartmental regression analysis, using an in-house fitting program developed at GNF [8]. All the in-life studies were carried out under protocols approved by the Animal Care and Use Committee (IACUC), following animal ethics guidelines of GNF.

[3] = test system: MDR1-MDCK (Multi Drug Resistant 1 overexpressing Madin–Darby canine kidney cells); test: in vitro; conditions: dog
Description: In order to evaluate potential of brain permeability, all three compounds were tested in an MDR1-MDCK permeability assay. […] Those that have a high efflux ratio are generally substrates for Pgp transporters, thereby having a higher propensity to be excluded from the brain. […] To assess directly the TP compounds’ ability to penetrate brain, mice were dosed with compound, and plasma and brains were collected after 5 and 60 min following intravenous dosing.

[4] = Intrinsic metabolic clearance in mouse liver microsomes; assay type: in vitro ADME; conditions: liver microsomes, read-out: Mouse liver microsomal clearance
Description: (§1) Test compounds’ solubility was determined in a high-throughput thermodynamic solubility assay, as described previously. The PAMPA (parallel artificial membrane) assays were carried out, using a standard protocol. Plasma protein binding was determined by using mouse blood, whilst brain tissue binding was determined by using rat brain tissue homogenate. Intrinsic metabolic clearances were determined in mouse liver microsomes, using the compound depletion approach and LC–MS/MS quantification.

[5] = PAMPA (parallel artificial membrane permeability assay); assay type: in vitro ADME; conditions: FA: fraction absorbed
Description: as §1

[6] = test system: T. b. brucei (GVR35-VSL2); test: Meningoencephalic mouse model (stage 2 HAT efficacy model, GVR35) with bioluminescence imaging; assay type: in vivo
Description: The GVR35 mouse CNS model mimics the second (meningoencephalic) stage of African trypanosomiasis. Female CD1 mice (~8 weeks old, from Charles River) were injected intraperitoneally (i.p.) with 3 × 10^4 T. b. brucei (GVR35-VSL2) bloodstream-form parasites. As controls, a group of three untreated mice and another group of three mice treated with diminazene aceturate (DA) were included. […] Mice treated with DA usually relapse after 42 days post-infection. […]
Blood parasitemia was quantified weekly from day 21/22, by microscopy of blood from the tail vein. Mice were imaged for bioluminescence using an in vivo imaging system (IVIS) prior to treatment on day 21/22, and weekly after treatment, as described previously. Briefly, mice, in groups of three, were injected i.p. with 150 mg of D-luciferin (Promega) per kilogram body weight in PBS and imaged after 10 min, using an IVIS Spectrum (PerkinElmer, Waltham, Massachusetts MA, USA). Living Image Software (PerkinElmer) was used for acquisition and analysis of bioluminescence imaging data. Bioluminescence in the same rectangular region of interest (ROI) on whole-body mouse images was quantified and is shown in total flux (photons per second). Images were cropped to the ROIs and composites of images from representative mice are shown. Uncured mice were euthanized within 1 or 2 days of parasite detection in the blood. Cured mice were euthanized between day 92 and 101 post-infection. All the results from the individual experiments were reported as number of mice cured over total number of mice treated. A Kaplan–Meier plot was used for representing the number of mice cured at different treatment doses.

T. b. gambiense = test: Growth inhibition of T. b. gambiense strains; assay type: cell-based; conditions: Trypanosoma brucei, mean ± SD, read-out: T. b. gambiense EC50
T. b. brucei STIB795 = test: Hemolymphatic mouse model (stage 1 HAT efficacy model); assay type: in vivo; conditions: for % Cured / Mean day of Relapse / Mice Cured/Total: four days
Description: The T. b. brucei STIB795 acute mouse model mimics the hemolymphatic stage of the sleeping sickness disease. We used six female NMRI mice per experimental group, divided into two cages. Heparinized blood from a donor mouse with approximately 5 × 10^6 per mL parasitemia was suspended in phosphate saline glucose (PSG), to obtain a parasite suspension of […]. Each mouse was injected with 0.25 mL of parasite suspension (10^4 bloodstream forms of T. b. brucei STIB795) intraperitoneally. All compounds were formulated in 0.5% methylcellulose and 0.5% Tween80. Three days post-infection, test compounds were administered orally on four consecutive days, in a volume of 100 µL/10 g. Three mice served as infected–untreated controls. […] Until 31 days post-infection, parasitemia was monitored microscopically by tail-blood examination twice a week. Mice were considered cured when there was no parasitemia detected in the tail blood. All the results from the individual experiments were reported as number of mice cured over total number of mice treated. A Kaplan–Meier plot was used for representing the number of mice cured at different treatment doses.

[7] = LogD (measured octanol water co-efficient); assay type: physicochemical

Cc1nc(C)c(C(=O)Nc2ccc(F)c(-c3nc4ncc(-c5ccccc5)cn4n3)c2)o1 [GNF3849]
Kp at 5 min ([1]; 5 min after 1 mg/kg i.v.): 0.22
Kp at 60 min ([1]; 60 min after 1 mg/kg i.v.): 0.28
T1/2 ([2]; i.v. 5 mg/kg, elimination half-life): 6.5 H
half-life ([2]; male, BALB/c, plasma, iv, 5 mg/kg, i.v., read-out: Elimination half-life (converted)): 6.5 h
Vd ([2]; male, BALB/c, plasma, iv, i.v. 5 mg/kg, read-out: Vss): 1.2 L/kg
MDR1-MDCK A–B [3]: 4.5
MDR1-MDCK B–A [3]: 14.1
microsomal CLint [4]: 15.2 µL/min/mg
PAMPA Permeability (% FA) [5]: 96 % FA
% Cured ([6]; 7.5 mg/kg QD oral, seven days): 0%
Mean Day of Relapse ([6]; 7.5 mg/kg QD oral, seven days): 37 days post infection
Mice Cured/Total ([6]; 7.5 mg/kg QD oral, seven days): 0/6
% Cured ([6]; 75 mg/kg QD oral, seven days): 50%
Day of Relapse, mice which did not relapse (value in parenthesis) ([6]; 75 mg/kg QD oral, seven days): > 92 days post infection
Mice Cured/Total ([6]; 75 mg/kg QD oral, seven days): 3/6
Mean Day of Relapse ([6]; 75 mg/kg QD oral, seven days, mice which relapsed): 60 days post infection
Cure outcome ([6]; 7.5 and 75 mg/kg, once daily): failed to achieve complete cure
EC50 (T. b. gambiense; GAMBIENSE / STIB930, strain STIB930): 4.5 ± 1 nM
EC50 (T. b. gambiense; GAMBIENSE, strain K048): 4.8 ± 1.1 nM
EC50 (T. b. gambiense; GAMBIENSE, strain R130): 1.9 ± 1 nM
% Cured (T. b. brucei STIB795; 7.5 mg/kg QD oral): 100%
Mean day of Relapse (T. b. brucei STIB795; 7.5 mg/kg QD oral): >31 days post infection
Mice Cured/Total (T. b. brucei STIB795; 7.5 mg/kg QD oral): 6/6
% Cured (T. b. brucei STIB795; 25 mg/kg QD oral): 100%
Mean day of Relapse (T. b. brucei STIB795; 25 mg/kg QD oral): >31 days post infection
Mice Cured/Total (T. b. brucei STIB795; 25 mg/kg QD oral): 6/6
% Cured (T. b. brucei STIB795; 75 mg/kg QD oral): 100%
Mean day of Relapse (T. b. brucei STIB795; 75 mg/kg QD oral): >31 days post infection
Mice Cured/Total (T. b. brucei STIB795; 75 mg/kg QD oral): 6/6
Cure outcome (T. b. brucei STIB795; all doses: 7.5, 25 and 75 mg/kg, once daily, for four days): complete cure
logD [7]: 3.31
